Results on 28 compounds are retold here after patent US8268848B2, “Cyclopropane compound” (Eisai R&D Management Co., Ltd., priority 2010, dated 2012).

What is called IC50 is the concentration that gives 50% inhibition.

Molecules are shown by their SMILES. Like-named read-outs stand apart in the source and are kept apart here.

In one experiment the target is T1, OX1 (Homo sapiens, UniProt O43613).
T1 sequence (O43613 1-425): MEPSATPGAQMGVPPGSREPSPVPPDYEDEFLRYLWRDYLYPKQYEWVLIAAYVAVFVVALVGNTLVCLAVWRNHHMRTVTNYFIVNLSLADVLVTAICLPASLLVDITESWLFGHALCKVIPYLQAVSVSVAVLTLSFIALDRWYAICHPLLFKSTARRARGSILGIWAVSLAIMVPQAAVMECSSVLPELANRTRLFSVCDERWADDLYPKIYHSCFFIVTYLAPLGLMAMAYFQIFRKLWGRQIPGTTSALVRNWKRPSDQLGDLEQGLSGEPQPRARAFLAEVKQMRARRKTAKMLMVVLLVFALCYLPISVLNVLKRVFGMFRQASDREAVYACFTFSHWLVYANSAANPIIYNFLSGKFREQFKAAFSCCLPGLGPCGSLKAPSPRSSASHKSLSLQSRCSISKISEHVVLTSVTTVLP
Briefly: Measurement of orexin receptor-binding ability ([125I]-OX-A, cell membranes, OX1). Set-up: expressed in transfected cells; host or cells: CHO cells (membrane preparation).

The target in another experiment is T2, OX2 (Homo sapiens, UniProt O43614).
T2 sequence (O43614 1-444): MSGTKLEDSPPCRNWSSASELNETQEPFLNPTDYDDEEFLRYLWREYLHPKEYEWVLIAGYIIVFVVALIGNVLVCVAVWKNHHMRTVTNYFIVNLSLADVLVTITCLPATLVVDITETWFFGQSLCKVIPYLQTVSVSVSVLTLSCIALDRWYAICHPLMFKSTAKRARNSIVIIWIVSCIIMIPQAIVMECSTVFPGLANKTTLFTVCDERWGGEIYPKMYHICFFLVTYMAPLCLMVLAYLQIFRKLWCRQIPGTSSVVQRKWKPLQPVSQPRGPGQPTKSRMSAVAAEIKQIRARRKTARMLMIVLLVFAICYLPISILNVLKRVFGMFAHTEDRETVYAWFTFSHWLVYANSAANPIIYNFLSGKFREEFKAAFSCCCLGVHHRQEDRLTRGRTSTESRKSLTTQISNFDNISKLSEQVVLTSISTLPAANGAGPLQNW
Briefly: Measurement of orexin receptor-binding ability ([125I]-OX-A, cell membranes, OX2). On the set-up: expressed in transfected cells; host or cells: CHO cells (membrane preparation). Conditions: membranes of recombinant CHO cells expressing OX2, 0.2 nM [125I]-OX-A.

[1] abbreviates: membranes of recombinant CHO cells expressing OX1, 0.2 nM [125I]-OX-A, read-out: OX1 (IC50).

`Cc1ccnc(NC(=O)[C@@H]2C[C@@]2(COc2cnc(C)nc2C)c2ccccc2)c1` [Example 47]: the IC50 at OX1 (setting [1]) was determined as 228 nM; at OX2 (read-out: OX2 (IC50)), 29 nM.

Turning to `Cc1ncc(OCC2(c3cccc(Cl)c3)CC2C(=O)Nc2ccc(C#N)cn2)c(C)n1` (centres unmarked) [Example 156], the IC50 was determined as 42 nM on OX1 and 13 nM on OX2 (OX2 (IC50) nM).

For `COCc1nc(C)ncc1OC[C@@]1(c2ccccc2)C[C@H]1C(=O)Nc1nc(C)cs1` [Example 142], the figures for the IC50 on OX1 (setting [1]) and at OX2 (read-out: OX2 (IC50)) were 331 nM and 36 nM, respectively.

On to `Cc1ncc(OC[C@@]2(c3cccc(F)c3)C[C@H]2C(=O)Nc2ccncc2)c(C)n1` [Example 90], for which the values for the 50% inhibitory concentration (IC50) on OX1 and at OX2 (OX2 (IC50) nM) were 2060 nM and 95 nM, respectively.

With `COc1cc(NC(=O)[C@@H]2C[C@@]2(COc2cnc(C)nc2C)c2ccc(F)cc2)ncc1F` [Example 104], the IC50 is 4 nM at OX1 (setting [1]) and 4.3 nM at OX2 (read-out: OX2 (IC50)).

For the compound `Cc1ncc(OCC2(c3ccc(Cl)cc3)CC2C(=O)Nc2ccc(Cl)cn2)c(C)n1` (centres unmarked) [Example 158], the IC50 is 180 nM on OX1 (setting [1]) and 27 nM on OX2 (read-out: OX2 (IC50)).

For `Cc1ncc(OCC2(c3cccc(Cl)c3)CC2C(=O)Nc2ccc(Cl)cn2)c(C)n1` (centres unmarked) [Example 155], the IC50 at OX1 was determined as 10 nM; at OX2 (OX2 (IC50) nM), 6 nM.

In the case of `COc1ccc(C2(COc3cnc(C)nc3C)CC2C(=O)Nc2ccc(Cl)cn2)cc1` (centres unmarked) [Example 182], the figures for the IC50 at OX1 (setting [1]) and on OX2 (read-out: OX2 (IC50)) were 99 nM and 21 nM, respectively.

For `Cc1ncc(OC[C@@]2(c3cccc(F)c3)C[C@H]2C(=O)Nc2ccc(F)nc2)c(C)n1` [Example 88], the IC50 was determined as 267 nM on OX1 and 13 nM on OX2 (OX2 (IC50) nM).

Turning to `COc1cc(NC(=O)[C@@H]2C[C@@]2(COc2cnc(C)nc2C)c2ccccc2)ccn1` [Example 72], the IC50 on OX1 (setting [1]) was determined as 202 nM; at OX2 (read-out: OX2 (IC50)) it was 31 nM.

Consider `COc1cccc(C2(COc3cnc(C)nc3C)CC2C(=O)Nc2ccc(C#N)cn2)c1` (centres unmarked) [Example 183], for which the IC50 on OX1 amounted to 337 nM; on OX2 (OX2 (IC50) nM), 42 nM.

Turning to `Cc1ncc(OCC2(c3cccnc3)CC2C(=O)Nc2ccc(Cl)cn2)c(C)n1` (centres unmarked) [Example 260, N-(5-chloropyridin-2-yl)-2-{[(2,4-dimethylpyrimidin-5-yl)oxy]methyl}-2-pyridin-3-ylcyclopropanecarboxamide], the IC50 on OX1 (setting [1]) was greater than 2000 nM; on OX2 (read-out: OX2 (IC50)) it was 70 nM.

With `Cc1ncc(OC[C@@]2(c3cc(F)ccc3O)C[C@H]2C(=O)Nc2ccc(F)cn2)c(C)n1` [Example 324, (1R,2S)-2-{[(2,4-dimethylpyrimidin-5-yl)oxy]methyl}-2-(5-fluoro-2-hydroxyphenyl]-N-(5-fluoropyridin-2-yl)cyclopropanecarboxamide], the IC50 at OX1 was found to be 113 nM; on OX2 (OX2 (IC50) nM), 5.9 nM.

Consider `Cc1ncc(OC[C@@]2(c3ccccc3)C[C@H]2C(=O)Nc2cnc(F)c(C)c2)c(C)n1` [Example 57], for which the figures for the IC50 at OX1 (setting [1]) and at OX2 (read-out: OX2 (IC50)) were 532 nM and 35 nM, respectively.

As to `Cc1ncc(OC[C@@]2(c3ccccc3)C[C@H]2C(=O)Nc2ncc(C)s2)c(C)n1` [Example 2], the half-inhibitory concentration (IC50) on OX1 (setting [1]) came out at 296 nM; at OX2 (read-out: OX2 (IC50)) it was 19 nM.

`Cc1ncc(OC[C@@]2(c3ccc(Br)cc3)C[C@H]2C(=O)Nc2ccc(Cl)cn2)c(C)n1` [Example 273, (1R,2S)-2-(4-bromophenyl)-N-(5-chloropyridin-2-yl)-2-{[(2,4-dimethylpyrimidin-5-yl)oxy]methyl}cyclopropanecarboxamide]: the IC50 on OX1 was found to be 69 nM; on OX2 (OX2 (IC50) nM), 10 nM.

Consider `Cc1ncc(OC[C@@]2(c3ccccc3)C[C@H]2C(=O)Nc2cc(C#N)ccn2)c(C)n1` [Example 46], for which the IC50 turned out to be 423 nM on OX1 (setting [1]) and 43 nM on OX2 (read-out: OX2 (IC50)).

For `CCc1nc(C)ncc1OC[C@@]1(c2ccc(F)cc2)C[C@H]1C(=O)Nc1cc(C)c(F)cn1` [Example 248, (1R,2S)-2-{[(4-ethyl-2-methylpyrimidin-5-yl)oxy]methyl}-N-(5-fluoro-4-methylpyridin-2-yl)-2-(4-fluorophenyl)cyclopropanecarboxamide], the values for the IC50 on OX1 (setting [1]) and on OX2 (read-out: OX2 (IC50)) were 10 nM and 3 nM, respectively.

Turning to `COCc1cccc(NC(=O)[C@@H]2C[C@@]2(COc2cnc(C)nc2C)c2ccccc2)c1` [Example 42], the results for the half-maximal inhibitory concentration (IC50) at OX1 and at OX2 (OX2 (IC50) nM) were 374 nM and 12 nM, respectively.

`Cc1ncc(OC[C@@]2(c3cccc(F)c3)C[C@H]2C(=O)Nc2ccc(Br)cn2)c(C)n1` [Example 279]: the IC50 is 24 nM at OX1 and 3.2 nM on OX2 (OX2 (IC50) nM).

For `Cc1ncc(OC[C@@]2(c3cccc(F)c3)C[C@H]2C(=O)Nc2ncc(F)cc2O)c(C)n1` [Example 319, (1R,2S)-2-{{[(2,4-dimethylpyrimidin-5-yl)oxy]methyl}}-N-(5-fluoro-3-hydroxypyridin-2-yl)-2-(3-fluorophenyl)cyclopropanecarboxamide], the IC50 is greater than 200 nM at OX1 and 128 nM at OX2 (OX2 (IC50) nM).

For the compound `COCc1nc(C)ncc1OC[C@@]1(c2cccc(F)c2)C[C@H]1C(=O)Nc1ccc(F)cc1` [Example 192, (1R,2S)-2-(3-fluorophenyl)-N-(4-fluorophenyl)-2-{[(4-methoxymethyl-2-methylpyrimidin-5-yl)oxy]methyl}cyclopropanecarboxamide], the IC50 was found to be 12 nM at OX1 (setting [1]) and 5 nM at OX2 (read-out: OX2 (IC50)).

Take `COCc1nc(C)ncc1OC[C@@]1(c2ccc(F)cc2)C[C@H]1C(=O)Nc1ccc(F)cn1` [Example 202, (1R,2S)-2-(4-fluorophenyl)-N-(5-fluoropyridin-2-yl)-2-{[(4-methoxymethyl-2-methylpyrimidin-5-yl)oxy]methyl}cyclopropanecarboxamide]: the IC50 on OX1 was found to be 14 nM; on OX2 (OX2 (IC50) nM), 2 nM.

In the case of `Cc1ncc(N(C)C[C@@]2(c3ccccc3)C[C@H]2C(=O)Nc2ccc(F)cc2)c(C)n1` [Example 300], the IC50 is 495 nM on OX1 (setting [1]) and 34 nM at OX2 (read-out: OX2 (IC50)).

Consider `COc1cc(NC(=O)[C@@H]2C[C@@]2(COc2cnc(C)nc2C)c2cc(F)cc(F)c2)ncc1F` [Example 138, (1R,2S)-2-(3,5-difluorophenyl)-2-{[(2,4-dimethylpyrimidin-5-yl)oxy]methyl}-N-(5-fluoro-4-methoxypyridin-2-yl)cyclopropanecarboxamide], for which the IC50 worked out at 2.6 nM at OX1 (setting [1]) and 2.4 nM at OX2 (read-out: OX2 (IC50)).

For the compound `Cc1ncc(OC[C@@]2(c3ccccc3)C[C@H]2C(=O)Nc2ccc(F)c(Cl)c2)c(C)n1` [Example 32, (1R,2S)-N-(3-chloro-4-fluorophenyl)-2-{[(2,4-dimethylpyrimidin-5-yl)oxy]methyl}-2-phenylcyclopropanecarboxamide], the IC50 on OX1 (setting [1]) was 15 nM; on OX2 (read-out: OX2 (IC50)), 3.5 nM.

For the compound `COCc1nc(C)ncc1OC[C@@]1(c2ccc(F)cc2)C[C@H]1C(=O)Nc1cc(C)c(F)cn1` [Example 205, (1R,2S)-N-(5-fluoro-4-methylpyridin-2-yl)-2-(4-fluorophenyl)-2-{[(4-methoxymethyl-2-methylpyrimidin-5-yl)oxy]methyl}cyclopropanecarboxamide], the half-maximal inhibitory concentration (IC50) was determined as 9 nM on OX1 and 6 nM at OX2 (OX2 (IC50) nM).

Consider `Cc1ncc(OC[C@@]2(c3ccccc3)C[C@H]2C(=O)Nc2cc(F)nc(F)c2)c(C)n1` [Example 76-2, (1R,2S)-N-(2,6-difluoropyridin-4-yl)-2-{[(2,4-dimethylpyrimidin-5-yl)oxy]methyl}-2-phenylcyclopropanecarboxamide], for which the IC50 on OX1 (setting [1]) amounted to 914 nM; at OX2 (read-out: OX2 (IC50)), 47 nM.
